Activity calls are given as the source filed them.
Assays:
[1] = viability loss in HepG2 hepatoma cells – cell-based, ATP luminescence, cherry-pick, activator set 2, cytotoxicity control, dose response (AID 1053143); format: functional
INS1 = experiment: INS-1E survival protection against cytokine death – cell-based, luminescence, retest, dose response (AID 449756); format: functional; settings: Rattus norvegicus;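 note: cell death triggered by IL-1 beta plus TNF-alpha plus IFN-gamma mixture; protective hits raise ATP signal compared with cytokine alone wells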
Vero = experiment: cells; format: functional; settings: Chlorocebus sabaeus
[2] = NIH-3T3 fibroblast cytotoxicity, dose response, cytotoxicity control, cell-based, fluorescence, Alamar Blue, secondary assay (AID 2327); format: functional;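 note: NIH-3T3 mouse fibroblasts cultured with fluconazole at 8 µg/mL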
Aminopeptidase N = biological target: T1, Aminopeptidase N (Plasmodium falciparum FcB1/Columbia, UniProt O96935); experiment: malaria alanyl aminopeptidase activity blockers – biochemical, fluorogenic H-Leu-NHMec substrate, 1536-well (AID 1445); design: species or system Plasmodium falciparum 3D7, 3D7
T1 sequence (O96935 whole entry): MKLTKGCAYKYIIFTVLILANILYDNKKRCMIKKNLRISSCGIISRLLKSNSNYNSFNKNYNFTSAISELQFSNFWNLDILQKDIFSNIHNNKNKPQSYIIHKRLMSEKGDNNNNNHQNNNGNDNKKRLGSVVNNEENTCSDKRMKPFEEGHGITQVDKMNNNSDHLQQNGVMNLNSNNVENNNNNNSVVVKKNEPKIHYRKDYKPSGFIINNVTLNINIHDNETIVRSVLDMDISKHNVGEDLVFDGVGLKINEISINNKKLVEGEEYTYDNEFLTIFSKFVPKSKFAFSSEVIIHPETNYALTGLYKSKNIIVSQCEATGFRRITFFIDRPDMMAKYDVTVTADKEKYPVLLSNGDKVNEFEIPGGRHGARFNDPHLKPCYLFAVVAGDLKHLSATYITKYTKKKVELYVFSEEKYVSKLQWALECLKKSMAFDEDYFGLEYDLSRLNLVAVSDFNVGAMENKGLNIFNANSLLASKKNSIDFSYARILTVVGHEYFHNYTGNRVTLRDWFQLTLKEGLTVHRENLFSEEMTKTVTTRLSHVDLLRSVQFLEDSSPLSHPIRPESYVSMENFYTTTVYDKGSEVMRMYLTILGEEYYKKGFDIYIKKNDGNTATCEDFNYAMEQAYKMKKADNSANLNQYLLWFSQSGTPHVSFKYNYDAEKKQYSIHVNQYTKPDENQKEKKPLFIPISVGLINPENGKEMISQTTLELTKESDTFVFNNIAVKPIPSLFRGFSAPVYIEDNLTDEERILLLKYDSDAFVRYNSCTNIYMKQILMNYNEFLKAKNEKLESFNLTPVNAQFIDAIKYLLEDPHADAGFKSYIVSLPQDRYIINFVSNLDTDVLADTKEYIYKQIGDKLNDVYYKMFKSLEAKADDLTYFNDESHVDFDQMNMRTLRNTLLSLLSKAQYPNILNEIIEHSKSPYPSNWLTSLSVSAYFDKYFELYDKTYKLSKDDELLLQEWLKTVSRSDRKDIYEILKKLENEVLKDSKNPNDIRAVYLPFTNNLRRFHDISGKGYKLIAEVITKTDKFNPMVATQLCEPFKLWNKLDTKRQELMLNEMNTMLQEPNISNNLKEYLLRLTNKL

[3] = fluconazole-exposed Candida albicans growth modulators – fluorescence, retest, confirmation (AID 2467); format: functional, cell-based
[4] = viability loss in human Jurkat cells – cell-based, luminescence, cytotoxicity control for P. falciparum gametocyte viability project, dose response (AID 1117277); format: functional;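 note: potency reflects loss of cellular ATP meaning fewer viable cells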
[5] = viability inhibitors of stage V gametocytes – luminescence, dose response (AID 1117278); format: functional, cell-based;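 note: gametocytes exposed to compound for 24 hours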
[6] = IGROV1 cell killing – plate reader, dry powder samples, PAX8 inhibitor project, dose response (AID 743043); format: functional, cell-based; settings: IGROV-1
Paired box protein Pax-8 = Paired box protein Pax-8 (Homo sapiens, UniProt Q06710); experiment: PAX8 transcriptional activity inhibition in RMG-I – RMG-I cells, luciferase, cherry-pick, dose response (AID 687027); format: functional, cell-based;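 note: luciferase reporter driven by Pax8 target thyroperoxidase promoter measured by SteadyGlo luminescence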
[7] = OVCAR8 cell viability loss – plate reader, dry powder samples, PAX8 project, dose response (AID 743197); format: functional, cell-based; settings: OVCAR-8
[8] = OVCAR-3 cell viability loss – plate reader, dry powder samples, PAX8 inhibitor project, dose response (AID 743044); format: functional, cell-based
[9] = toxicity toward immortalized ovarian surface epithelium – cell-based, plate reader, dry powder samples, cytotoxicity control for PAX8 inhibitor project, dose response (AID 743045); format: functional
[10] = biological target: Endoplasmic reticulum aminopeptidase 1 (Homo sapiens, UniProt Q9NZ08); experiment: inhibition of human ERAP1 enzyme activity – biochemical, cherry-pick, set 2, plate reader, dose response (AID 743314)
Prothrombin = Prothrombin (Homo sapiens, UniProt P00734); experiment: Thrombin 1536 HTS Dose Response Confirmation. [Related pubchem assays: 1046 (Thrombin 1536 HTS; hits were confirmed in this assay)]; format: functional
[11] = A549 cell cytotoxicity, dose response, cytotoxicity control, plate reader, cherry-pick, antagonist series (AID 743412); format: functional, cell-based
[12] = loss of viability in HepG2 cells – cell-based, CellTiter-Glo, cherry-picked, cytotoxicity control for Shn3 inhibitor project, dose response (AID 624134); format: functional
[13] = general cell-killing toxicity readout – plate reader, dry powder samples, cytotoxicity control for PAX8 inhibitor project, dose response (AID 743021); format: functional, cell-based
[14] = biological target: T2, Heat shock factor protein 1 (Mus musculus, UniProt P38532); experiment: decrease of HSF1-responsive luciferase luminescence – cell-based, NIH3T3, dose retest, confirmation (AID 2382); format: functional;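 note: NIH3T3 fibroblasts with HSF1-driven luciferase reporter stressed by proteasome inhibitor MG132; luminescence from HSF1-driven luciferase expression after 8 hours of MG132 stress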
T2 sequence (P38532 whole entry): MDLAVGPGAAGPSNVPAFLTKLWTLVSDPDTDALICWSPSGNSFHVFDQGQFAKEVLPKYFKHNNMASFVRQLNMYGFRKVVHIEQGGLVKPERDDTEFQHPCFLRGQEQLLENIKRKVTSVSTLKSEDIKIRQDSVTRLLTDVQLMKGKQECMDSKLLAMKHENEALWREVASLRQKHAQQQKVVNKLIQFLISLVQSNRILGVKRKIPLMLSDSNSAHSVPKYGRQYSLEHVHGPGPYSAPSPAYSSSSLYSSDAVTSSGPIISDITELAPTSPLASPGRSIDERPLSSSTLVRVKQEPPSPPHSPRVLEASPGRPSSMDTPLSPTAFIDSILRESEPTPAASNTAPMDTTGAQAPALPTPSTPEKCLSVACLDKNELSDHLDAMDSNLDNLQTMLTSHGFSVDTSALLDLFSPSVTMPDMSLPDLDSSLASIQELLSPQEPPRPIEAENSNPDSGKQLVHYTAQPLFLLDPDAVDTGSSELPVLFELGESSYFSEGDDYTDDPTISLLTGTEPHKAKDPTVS

[15] = blockade of melanocortin 4 receptor signaling – cell-based, plate reader, cherry pick, counter-screen for LGR2 antagonist project, dose response (AID 743444); format: functional;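 note: transfected HEK 293 cells stimulated with alpha-MSH peptide; potency of inhibitors of the alpha-MSH evoked signal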
[16] = non-specific 3'UTR reporter inhibition in Clone20-Shn3RL – cell-based, Renilla luciferase, cherry-picked, counter-screen for Shn3 inhibitor project, dose response (AID 624133); format: functional
[17] = reduction of Shn3 3'UTR-driven luciferase in osteoblasts – cell-based, Clone20 osteoblasts, firefly luciferase, cherry-picked, dose response (AID 624132); format: functional;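 note: firefly luciferase luminescence from reporter carrying the Shn3 3'UTR in osteoblasts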
[18] = toxicity toward HepG2 liver cells – cell-based, plate reader, cherry-pick, antagonist series, cytotoxicity control, dose response (AID 743416); format: functional
[19] = biological target: T3, Microphthalmia-associated transcription factor (Homo sapiens, UniProt O75030); experiment: reducers of TRPM1 reporter luminescence, concentration series – cell-based, SK-MEL-5, cherry-picked, set 3, MITF inhibitor project, dose response (AID 493073); format: functional;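 note: SK-MEL-5 melanoma cells with luciferase driven by the MITF target TRPM1 promoter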
T3 sequence (O75030 whole entry): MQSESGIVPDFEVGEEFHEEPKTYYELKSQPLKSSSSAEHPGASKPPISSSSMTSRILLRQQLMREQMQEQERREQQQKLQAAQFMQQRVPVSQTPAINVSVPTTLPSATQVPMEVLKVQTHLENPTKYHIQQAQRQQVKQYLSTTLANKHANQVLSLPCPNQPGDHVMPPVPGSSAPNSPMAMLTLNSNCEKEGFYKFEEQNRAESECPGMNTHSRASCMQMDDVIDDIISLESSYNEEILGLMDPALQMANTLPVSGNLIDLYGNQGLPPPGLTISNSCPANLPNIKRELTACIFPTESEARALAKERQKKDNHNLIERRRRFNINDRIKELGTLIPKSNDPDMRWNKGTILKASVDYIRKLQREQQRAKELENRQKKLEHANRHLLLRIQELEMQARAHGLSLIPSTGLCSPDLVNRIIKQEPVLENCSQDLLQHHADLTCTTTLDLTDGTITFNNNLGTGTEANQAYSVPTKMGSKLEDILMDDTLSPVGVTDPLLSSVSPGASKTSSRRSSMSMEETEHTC

[20] = Luminescence Cell-Based Dose Retest to Confirm Inhibitors of Cancer Stem Cells. [Related pubchem assays (depositor defined):AID2717, AID2721]; format: functional, Homo sapiens; settings: Homo sapiens
[21] = viability loss in HEK293 cells – cell-based, plate reader, cherry-picked samples, cytotoxicity control, dose response (AID 743446); format: functional
[22] = blockers of bursicon-stimulated LGR2 cAMP reporter – cell-based, HEK293, CRE-luciferase reporter, cherry pick, set 2, dose response (AID 743343); format: functional;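 note: transfected cells were stimulated with diluted bursicon conditioned medium after compound addition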
[23] = IC50 of Artemis nuclease activity blockers – biochemical, fluorescence intensity, dose response (AID 720701); format: functional;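 note: Artemis endonuclease enzyme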

Chain of Endoplasmic reticulum aminopeptidase 1 (Q9NZ08 whole entry): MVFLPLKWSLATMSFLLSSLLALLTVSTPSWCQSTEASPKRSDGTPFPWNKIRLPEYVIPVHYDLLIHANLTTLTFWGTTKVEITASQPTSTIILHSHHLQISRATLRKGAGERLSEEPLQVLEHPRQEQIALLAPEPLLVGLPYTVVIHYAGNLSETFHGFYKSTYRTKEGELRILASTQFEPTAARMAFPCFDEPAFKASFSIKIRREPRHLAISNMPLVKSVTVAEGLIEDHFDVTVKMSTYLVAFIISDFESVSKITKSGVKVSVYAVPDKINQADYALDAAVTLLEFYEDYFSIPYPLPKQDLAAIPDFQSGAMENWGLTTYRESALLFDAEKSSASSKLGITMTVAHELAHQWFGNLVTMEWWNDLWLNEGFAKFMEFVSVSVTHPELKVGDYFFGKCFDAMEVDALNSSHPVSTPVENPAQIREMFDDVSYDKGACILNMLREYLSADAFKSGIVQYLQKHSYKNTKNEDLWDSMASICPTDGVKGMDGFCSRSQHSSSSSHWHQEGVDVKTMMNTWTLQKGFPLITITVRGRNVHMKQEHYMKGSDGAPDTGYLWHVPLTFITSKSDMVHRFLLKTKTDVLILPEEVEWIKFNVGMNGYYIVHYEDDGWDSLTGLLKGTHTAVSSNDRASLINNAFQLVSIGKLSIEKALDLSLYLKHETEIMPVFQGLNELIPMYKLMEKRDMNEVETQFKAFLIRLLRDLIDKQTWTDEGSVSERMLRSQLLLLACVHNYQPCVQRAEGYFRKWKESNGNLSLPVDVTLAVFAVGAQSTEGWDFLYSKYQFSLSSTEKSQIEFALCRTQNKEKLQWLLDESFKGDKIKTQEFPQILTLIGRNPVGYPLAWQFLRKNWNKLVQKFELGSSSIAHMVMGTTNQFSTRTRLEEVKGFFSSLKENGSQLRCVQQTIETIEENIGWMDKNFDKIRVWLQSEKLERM
Chain of Paired box protein Pax-8 (Q06710 whole entry): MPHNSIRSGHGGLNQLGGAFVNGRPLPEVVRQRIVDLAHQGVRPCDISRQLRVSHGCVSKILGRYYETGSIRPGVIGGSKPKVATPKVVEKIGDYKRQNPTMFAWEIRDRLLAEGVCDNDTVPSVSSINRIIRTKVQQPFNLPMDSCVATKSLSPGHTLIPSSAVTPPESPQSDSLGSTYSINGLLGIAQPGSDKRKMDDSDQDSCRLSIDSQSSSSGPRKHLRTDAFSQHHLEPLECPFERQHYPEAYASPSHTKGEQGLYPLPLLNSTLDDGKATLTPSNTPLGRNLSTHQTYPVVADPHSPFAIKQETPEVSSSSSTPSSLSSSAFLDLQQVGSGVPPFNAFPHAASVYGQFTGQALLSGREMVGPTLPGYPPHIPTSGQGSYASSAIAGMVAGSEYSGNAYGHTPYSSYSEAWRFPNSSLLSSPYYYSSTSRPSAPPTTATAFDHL

Compound: COc1ccc2c(c1)c(/C=N/Nc1nc3ccccc3[nH]1)c(C)n2C
- AC50 [1]: 26 µM (active)
- AC50 (INS1): 10.2 µM (active)
- CC50 (Vero): 13.4 µM (active)

Compound: O=C(Oc1c(CN2CCOCC2)cc(Cl)c2cccnc12)c1cccs1
- AC50 [1]: 26 µM (active)
- EC50 [2]: > 160 µM (inactive)
- AC50 (INS1): 4.67 µM (active)
- IC50 (Aminopeptidase N): 72.3 µM (active)
- EC50 [3]: 2.63 µM (active)

Compound: O=C(Cn1c(C(F)(F)F)nc2ccccc21)Nc1ccccc1C(=O)O
- IC50 [4]: > 83.3 µM (inactive)
- IC50 [5]: > 109 µM (inactive)

Compound: COc1ccc(S(=O)(=O)N(C)C[C@@H]2Oc3ccc(NC(=O)Nc4ccc(C(F)(F)F)cc4)cc3CC(=O)N([C@H](C)CO)C[C@@H]2C)cc1
- AC50 [6]: 16.8 µM (active)
- AC50 (Paired box protein Pax-8): 4.64 µM (active)
- AC50 [7]: 22.1 µM (active)
- AC50 [8]: 6.36 µM (active)
- AC50 [9]: 13.8 µM (active)

Compound: CN1[C@@H]2c3ccc(/C=C/c4ccccc4)c(=O)n3C[C@@H]2[C@@H](CO)[C@@H]1C(=O)NC1CCCC1
- AC50 [10]: 17.5 µM (active)

Compound: COc1ccc(OC)c(S(=O)(=O)Nc2c(C)cccc2C)c1
- IC50 [4]: > 83.3 µM (inactive)
- IC50 [5]: > 109 µM (inactive)

Compound: COc1ccccc1C(=O)n1nc(-c2ccccc2)nc1NCc1ccco1
- IC50 (Prothrombin): 223 nM (active)

Compound: O=C(Nc1ccc2nc3n(c(=O)c2c1)CCCCC3)c1cc([N+](=O)[O-])ccc1F
- AC50 (Paired box protein Pax-8): 14.3 µM (active)
- AC50 [11]: 17.5 µM (active)
- AC50 [12]: 42.2 µM (active)
- AC50 [13]: 42.6 µM (active)
- EC50 [14]: > 195 µM (not active)
- AC50 [15]: 11.5 µM (active)
- AC50 [16]: 9.99 µM (active)
- AC50 [17]: 14.1 µM (active)
- AC50 [18]: 18.3 µM (active)
- AC50 [19]: 10.7 µM (active)
- AC50 [20]: 5.51 µM (active)
- AC50 [21]: 14.7 µM (active)
- AC50 [22]: 6.52 µM (active)

Compound: CCN1CCc2nc(NC(=O)C(c3ccccc3)c3ccccc3)sc2C1
- IC50 [23]: > 20 µM (inactive)

Compound: Cc1c(Cc2ccccc2)c(=O)oc2cc(O)ccc12
- AC50 [10]: 12.6 µM (active)

— ChEMBL document CHEMBL1201862, “PubChem BioAssay data set” (2004)
